Measurements as given in patent publication US20130129686A1, “Reducing Inflammation Using Cell Therapy” (Regents of the University, priority 2009, published 2013).
“Also recorded” adds a separate entry of the source.

Key:
[1] = cited from earlier work
PGE2 = PGE2 quantification in MAPC culture supernatant (PGE2 assay kit); type: cell-based, mouse; conditions: overnight treatment of MAPCs, 5 μM, for the period of the MLR culture (9 days)
From the text: Lymph nodes (LNs) were harvested from B6 mice and T-cells were purified using by negative selection using PE-conjugated anti-CD19, anti-CD11c, anti-NK1.1 and anti-PE magnetic beads (Miltenyi Biotech). Purity was routinely >95%. Spleens were harvested from BALB/c mice, T-cell depleted (anti-Thy1.1), and irradiated (3000 cGy). B6 T-cells were mixed at a 1:1 ratio with BALB/c splenic stimulators and plated in a 96 well round bottom plate (10^5 T-cells/well) or in the lower chamber of a 24 well plate TransWell insert (10^6 T-cells/well). MAPCs were irradiated (3000 cGy) and plated in a 96 well round bottom plate (10^4/well, 1:10) or in a 24 well TransWell plate (10^5/well, 1:10). […] Cells were pulsed with ^3H-thymidine (1 μCi/well) 16-18 hours prior to harvesting and counted in the absence of scintillation fluid on a β-plate reader. […]
Quantitative determination of PGE2 in cell culture supernatants was performed using PGE2 assay kit (R&D Systems) by following manufacturer's instructions. Quantities of IL-10, TGF-β, IL-2, TNF-α, IFN-γ, and IL-12 were determined using Luminex technology (R&D Systems). […] The color development is stopped, and the absorbance is read at 450 nm. […]

[2] = tested on: allogeneic T cell proliferation; experiment: Mixed leukocyte reaction (MLR), 3H-thymidine uptake; type: cell-based, mouse
From the text: Lymph nodes (LNs) were harvested from B6 mice and T-cells were purified using by negative selection using PE-conjugated anti-CD19, anti-CD11c, anti-NK1.1 and anti-PE magnetic beads (Miltenyi Biotech). Purity was routinely >95%. Spleens were harvested from BALB/c mice, T-cell depleted (anti-Thy1.1), and irradiated (3000 cGy). B6 T-cells were mixed at a 1:1 ratio with BALB/c splenic stimulators and plated in a 96 well round bottom plate (10^5 T-cells/well) or in the lower chamber of a 24 well plate TransWell insert (10^6 T-cells/well). MAPCs were irradiated (3000 cGy) and plated in a 96 well round bottom plate (10^4/well, 1:10) or in a 24 well TransWell plate (10^5/well, 1:10). Cells were incubated in “T-cell media” in 200 μl/well (96 well) or 800 μl/well (24 well) of RPMI 1640 (Invitrogen, Carlsbad, Calif.) supplemented with 10% FCS, […] 2-ME (Sigma-Aldrich), 10 mM HEPES buffer (Invitrogen), 1 mM sodium pyruvate (Invitrogen), amino acid supplements (1.5 mM L-glutamine, L-arginine, L-asparagine) (Sigma-Aldrich), 100 U/ml penicillin, […] streptomycin (Sigma-Aldrich). Cells were pulsed with ^3H-thymidine (1 μCi/well) 16-18 hours prior to harvesting and counted in the absence of scintillation fluid on a β-plate reader. […] Trypan blue exclusion was used to assess effects on live cells. […]

CCCCC[C@H](O)/C=C/[C@H]1[C@H](O)CC(=O)[C@@H]1C/C=C\CCCC(=O)O [PGE2, prostaglandin E2]
half-life in vivo [1]: ~30 s

COc1ccc2c(c1)c(CC(=O)O)c(C)n2C(=O)c1ccc(Cl)cc1 [indomethacin]
upstream synthesis of PGE2 by MAPCs (PGE2): potently inhibited

Cn1cc(C[C@@H](N)C(=O)O)c2ccccc21 [1MT, 1-methyl-D-tryptophan]
additive effect with indomethacin pre-treatment of MAPCs ([2]; 200 μM 1MT in co-culture plus MAPCs pre-treated with 5 μM indomethacin): little/no additive effect | T-cell proliferation in MLR-MAPC co-cultures with IDO inhibitor ([2]; 200 μM in culture media): did not increase T-cell proliferation; also recorded: did not affect T-cell proliferation
